Results reported in US4302541A, “Process of producing optically active cephalosporin analogs by enzyme selective deacylation” (Kyowa Hakko Kogyo Co., Ltd., priority 1979, dated 1981).
In brackets after ≈: the same amount, converted by molar mass. Like-named read-outs stand apart in the source and are kept apart here.

Key:
Test in all cases: Heart Infusion Agar Dilution Method (MIC)
Type in all cases: cell-based
Escherichia coli NIHJC-2 = details: NIHJC2, pH 7.2
Escherichia coli Juhl = details: pH 7.2
[1] = system: Staphylococcus aureus 209-P; details: pH 7.2
Proteus mirabilis 1287 = system: Proteus mirabilis 1287
Serratia marcescens T-55 = details: T55, pH 7.2
[2] = system: Staphylococcus epidermidis; details: pH 7.2
[3] = system: Klebsiella pneumoniae Y-60; details: Y60, pH 7.2
Serratia marcescens T-26 = details: T26, pH 7.2
[4] = system: Klebsiella pneumoniae 8045; details: pH 7.2
[5] = Staphylococcus aureus 209-P, Heart Infusion Agar Dilution Method, read-out: MIC

Structure (SMILES)	MIC (Escherichia coli NIHJC-2)	MIC (Escherichia coli Juhl)	MIC [1, 5]	MIC (Proteus mirabilis 1287; Proteus mirabilis, 1287, pH 7.2)	MIC (Serratia marcescens T-55)	MIC [2]	MIC [3]	MIC ([1]; Staphylococcus aureus, 209P)	MIC (Proteus mirabilis 1287; Proteus mirabilis 1287, Heart Infusion Agar Dilution Method, pH 7.2, read-out: MIC)	MIC (Serratia marcescens T-26)	MIC [4]
Cc1nnc(SCC2=C(C(=O)O)N3C(=O)[C@@H](NC(=O)Cn4cnnn4)[C@H]3SC2)s1 [Cefazolin]	1.56 µg/mL (≈ 3.43 µM)	1.56 µg/mL (≈ 3.43 µM)	≤ 0.05 µg/mL								
CC1=C(C(=O)O)N2C(=O)[C@@H](NC(=O)[C@H](N)c3ccccc3)[C@H]2SC1 [Cephalexin]	12.5 µg/mL (≈ 36 µM)	12.5 µg/mL (≈ 36 µM)		25 µg/mL (≈ 72 µM)	50 µg/mL (≈ 144 µM)	3.12 µg/mL (≈ 8.98 µM)	50 µg/mL (≈ 144 µM)	0.2 µg/mL (≈ 0.576 µM)			
N[C@@H](C(=O)N[C@@H]1C(=O)N2C(C(=O)O)=C(Cl)CC[C@H]12)c1ccccc1 [Reference Example 2, (6R, 7S) 7-(R)-2-phenylglycinamido3-chloro-1-azabicyclo[4,2,0]oct-2-en-8-on-2-carboxylic acid]			0.1 µg/mL (≈ 0.286 µM)						3.12 µg/mL (≈ 8.92 µM)	> 100 µg/mL	0.2 µg/mL (≈ 0.572 µM)
